Experimental data from PubChem BioAssay (NCI).
Where “and” joins values, the source holds several entries; their conditions need not be identical. Equal values may be shown once.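 Five concentrations, 48 hours, 96-well plates. At the GI50, growth is halved. TGI marks complete inhibition of growth.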

What was measured:
Assay in all cases: NCI-60 cell line screen, 48 h
[1] = test system: PC-3 prostate
[2] = test system: MCF7 breast
[3] = test system: BT-549 breast
[4] = test system: HCT-116 colon
[5] = test system: HS 578T breast
[6] = test system: LXFL 529 NSCLC
[7] = test system: DLD-1 colon
[8] = test system: SNB-78 CNS
[9] = test system: DMS 273 small cell lung
[10] = test system: M19-MEL melanoma

| Compound | GI50 [1] | GI50 [2] | TGI [2] | GI50 [3] | TGI [3] | GI50 [4] | TGI [4] | GI50 [5] | TGI [5] | GI50 [6] | TGI [6] | GI50 [7] | TGI [7] | GI50 [8] | TGI [8] | GI50 [9] | TGI [9] | TGI [1] | TGI [10] | GI50 [10] |
| --- | --- | --- | --- | --- | --- | --- | --- | --- | --- | --- | --- | --- | --- | --- | --- | --- | --- | --- | --- | --- |
| CNC1=C(Br)C(=O)C2=C(C1=O)C1C3=C(C(=O)C=CC3=O)C2c2ccccc21 (configuration not stated) | 1.38 µM | 2.25 µM | 5.62 µM | 2.45 µM | 5.98 µM | 1.44 µM | 2.86 µM | 12.7 µM | 70.3 µM | – | – | – | – | – | – | – | – | – | – | – |
| CCC(=O)[O-].CCC(=O)[O-].N.N.N.N.[Co+3].[O-][Cl+3]([O-])([O-])[O-] | – | – | – | – | – | > 100 µM | > 100 µM | – | – | > 100 µM | > 100 µM | > 100 µM | > 100 µM | > 100 µM | > 100 µM | > 100 µM | > 100 µM | – | – | – |
| COc1ccc(-n2nc(C)c3c(Nc4ccc(NC(=O)Nc5cc(C(F)(F)F)ccc5F)cc4)ncnc32)cc1 | 2.13 µM | 2.69 µM | 14.7 µM | 2.49 µM | 7.67 µM | 2.81 µM | 10.3 µM | 2.33 µM | 7.11 µM | – | – | – | – | – | – | – | – | 6.85 µM | – | – |
| O=C(O)C1(C(=O)O)CCN(S(=O)(=O)c2ccccc2)CC1 | – | – | > 100 µM | – | > 100 µM | – | > 100 µM | – | > 100 µM | – | – | – | – | – | – | – | – | > 100 µM | – | – |
| C#Cc1cccc(N2C(=O)CC(=P(c3ccccc3)(c3ccccc3)c3ccccc3)C2=O)c1 | – | – | – | – | – | – | > 100 µM | – | – | – | > 100 µM | – | > 100 µM | – | > 100 µM | – | – | – | > 100 µM | – |
| COc1cccc2c1C(=O)c1c(O)c3c(c(O)c1C2=O)C[C@@](O)(C(=O)COC(=O)c1cccnc1)C[C@@H]3OC1CC(N)C(O)C(C)O1 (some centres not stated) | 0.222 µM | 0.033 µM | 2.08 µM | 0.193 µM | 1.02 µM | 0.0475 µM | 0.492 µM | 0.175 µM | 0.984 µM | – | – | – | – | – | – | – | – | 1.43 µM | – | – |
| O=C(/C=C/c1ccccc1)c1ccc(O)c(CN2CCN(c3cc4c(cc3F)c(=O)c(C(=O)O)cn4C3CC3)CC2)c1 | 0.897 µM | 0.688 µM | > 100 µM | 0.989 µM | 26.3 µM | 0.43 µM | > 100 µM | 0.577 µM | > 100 µM | – | – | – | – | – | – | – | – | > 100 µM | – | – |
| Cc1cc2cc(Oc3ccnc(Nc4cccc(CS(=O)(=O)NCCN(C)C)c4)n3)ccc2[nH]1 | 3.38 µM | 4.03 µM | 18.4 µM | 5.03 µM | 18.1 µM | 3.33 µM | 14 µM | 3.17 µM | 29.5 µM | – | – | – | – | – | – | – | – | 13.2 µM | – | – |
| COc1ccc(-c2ccc(=O)oc2-c2cc(OC)c(OC)c(OC)c2)cc1O | 0.0183 µM | < 0.01 µM | > 100 µM | 0.0919 µM | > 100 µM | 0.0242 µM | > 100 µM | 0.0275 µM | > 100 µM | – | – | – | – | – | – | – | – | > 100 µM | – | – |
| O=C1c2ccccc2C(=O)N1C/C=N/NS(=O)(=O)c1ccc(Cl)cc1 | – | – | – | – | – | – | > 100 µM | – | – | – | > 100 µM | – | > 100 µM | – | – | – | > 100 µM | – | > 100 µM | – |
| CC(=O)C1C(=O)C(=O)N(c2ccc(Cl)cc2C)C1=O (configuration not stated) | – | – | – | – | – | – | > 100 µM | – | – | – | > 100 µM | – | > 100 µM | – | > 100 µM | – | – | – | > 100 µM | – |
| O=C(Oc1ccccc1Cl)c1cccnc1Nc1ccnc(C(F)(F)F)c1 | 17.8 µM | 3.66 µM | 17.5 µM | 5.12 µM | 22.4 µM | 2.13 µM | 4.35 µM | 17.3 µM | 48.9 µM | – | – | – | – | – | – | – | – | 36.3 µM | – | – |
| CCCCCCCCOC(=O)c1cc(O)c(O)c(O)c1 | 2.02 µM | 4.14 µM | 26.7 µM | 2.08 µM | 14.2 µM | 1.97 µM | 12.9 µM | 2.4 µM | 22.2 µM | – | – | – | – | – | – | – | – | 20.5 µM | – | – |
| C/C(=C\c1ccccc1)C(O)S(=O)(=O)O (configuration not stated) | – | – | – | – | – | – | > 100 µM | – | – | – | > 100 µM | – | > 100 µM | – | – | – | > 100 µM | – | > 100 µM | – |
| CCCCCCCCCCCCCCCC[N+](C)(C)C | 0.15 µM | 0.313 µM and 1.86 µM | 1.44 µM and 5.2 µM | 0.267 µM | 0.873 µM | 0.258 µM and 1.01 µM | 1.04 µM and 2.57 µM | 0.269 µM and 1.82 µM | 0.984 µM and 5.46 µM | – | – | – | – | – | – | – | – | 0.376 µM | – | – |
| CC(=O)[CH-]C(=O)c1ccccc1.CC(=O)[CH-]C(=O)c1ccccc1.[O-]c1ccc(O)cc1.[O-]c1ccc(O)cc1.[Ti+4] | – | – | – | – | – | 15.1 µM | 28.3 µM | – | – | 13 µM | 25.7 µM | 16.6 µM | 37.6 µM | – | – | – | – | – | 29.7 µM | 14.8 µM |
